Legend:
PKMYT1 = molecular target: T1, PKMYT1 (Homo sapiens, UniProt Q99640); assay: LanthaScreen Eu Kinase Binding Assay, PKMYT1
T1 sequence (Q99640 1-499): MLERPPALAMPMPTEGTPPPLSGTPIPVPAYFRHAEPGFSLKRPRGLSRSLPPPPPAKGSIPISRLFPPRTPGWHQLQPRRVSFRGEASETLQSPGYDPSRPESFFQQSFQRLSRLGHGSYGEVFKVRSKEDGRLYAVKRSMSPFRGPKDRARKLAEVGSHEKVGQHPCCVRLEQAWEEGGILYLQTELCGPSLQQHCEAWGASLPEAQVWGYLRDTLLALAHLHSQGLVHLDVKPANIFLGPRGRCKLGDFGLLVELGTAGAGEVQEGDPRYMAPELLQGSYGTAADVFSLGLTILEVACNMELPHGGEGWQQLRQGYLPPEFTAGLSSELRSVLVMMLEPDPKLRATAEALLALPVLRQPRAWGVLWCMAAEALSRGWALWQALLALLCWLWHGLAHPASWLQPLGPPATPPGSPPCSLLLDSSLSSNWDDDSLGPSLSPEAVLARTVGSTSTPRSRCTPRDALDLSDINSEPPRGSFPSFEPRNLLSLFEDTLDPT
Experimental: (§1) Binding of the tracer to the kinase is detected using a europium-labeled anti-GST antibody, which binds to the fused tag on the kinase protein. […] Inhibitor binding to the kinase competes with tracer binding, resulting in loss of FRET from the donor/acceptor pairs.
(§2) Kinase/Antibody Mixtures and Tracer are diluted to a 2× and 4× working concentration, respectively in this same buffer. […] 0% displacement (no known inhibitor) and 100% displacement (highest concentration of known inhibitor) controls were included on each plate for maximum and minimum Emission Ratio determination, respectively. Dasatinib was used for both PKMYT1 and WEE1 as the known inhibitor.
(§3) IC50 determination was performed using a non-linear regression, variable slope (four parameter), inhibitor v. response equation (Prism 9.0).

WEE1 = WEE1 (Homo sapiens, UniProt P30291); assay: LanthaScreen Eu Kinase Binding Assay, WEE1
Chain of WEE1 (P30291 whole entry): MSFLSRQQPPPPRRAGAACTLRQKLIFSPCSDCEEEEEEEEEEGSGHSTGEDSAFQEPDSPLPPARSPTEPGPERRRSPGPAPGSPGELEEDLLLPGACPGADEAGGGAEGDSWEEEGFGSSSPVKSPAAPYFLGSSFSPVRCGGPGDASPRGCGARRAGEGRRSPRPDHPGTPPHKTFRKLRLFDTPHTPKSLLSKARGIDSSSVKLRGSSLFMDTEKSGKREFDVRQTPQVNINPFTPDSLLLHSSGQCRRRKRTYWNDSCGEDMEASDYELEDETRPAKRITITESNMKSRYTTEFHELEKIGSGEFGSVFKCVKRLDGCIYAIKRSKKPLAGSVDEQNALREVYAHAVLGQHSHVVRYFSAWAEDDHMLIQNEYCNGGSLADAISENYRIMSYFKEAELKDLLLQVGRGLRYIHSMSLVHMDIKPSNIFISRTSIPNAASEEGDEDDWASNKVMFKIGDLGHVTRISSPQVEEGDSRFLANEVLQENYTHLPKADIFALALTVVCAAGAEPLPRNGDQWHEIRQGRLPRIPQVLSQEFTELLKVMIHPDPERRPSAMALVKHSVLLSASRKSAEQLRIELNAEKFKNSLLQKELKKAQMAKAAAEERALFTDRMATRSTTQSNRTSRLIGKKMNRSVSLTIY
Experimental: as §1, §2, §3

| Structure (SMILES) | IC50 (PKMYT1) | IC50 (WEE1) |
| --- | --- | --- |
| Cc1ccc(O)c(C)c1-c1nc(N(C)CCO)cc2c(N)ncnc12 (racemic) [Compound 47-A, 3-(4-amino-6-((2-hydroxyethyl)(methyl)amino)pyrido[3,4-d]pyrimidin-8-yl)-2,4-dimethylphenol] | 10 to 100 nM | > 1000 nM |
| CNc1cc2c(N)ncnc2c(-c2c(C)ccc(O)c2C)n1 (single isomer, unassigned) [Compound 1-B] | 10 to 100 nM | > 1000 nM |
| Cc1ccc(O)c(C)c1-c1nc(N2CCC(F)(F)C2)cc2c(N)ncnc12 (single isomer, unassigned) [Compound 2-B] | < 10 nM | 100 to 1000 nM |
| Cc1ccc(O)c(C)c1-c1nc(N2CC[C@@H](O)C2)cc2c(N)ncnc12 (single isomer, unassigned) [Compound 3-B] | < 10 nM | > 1000 nM |
| Cc1ccc(O)c(C)c1-c1nc(N2CC[C@H](O)C2)cc2c(N)ncnc12 (single isomer, unassigned) [Compound 4-B] | 10 to 100 nM | > 1000 nM |
| Cc1ccc(O)c(C)c1-c1nc(N2CC(F)(F)C2)cc2c(N)ncnc12 (single isomer, unassigned) [Compound 5-B] | 10 to 100 nM | > 1000 nM |
| Cc1ccc(O)c(C)c1-c1nc(N2CCCC2)cc2c(N)ncnc12 (single isomer, unassigned) [Compound 6-B] | < 10 nM | > 1000 nM |
| Cc1ccc(O)c(C)c1-c1nc(N2CCOCC2)cc2c(N)ncnc12 (single isomer, unassigned) [Compound 7-B] | < 10 nM | > 1000 nM |
| Cc1ccc(O)c(C)c1-c1nc(N=S(C)(C)=O)cc2c(N)ncnc12 (single isomer, unassigned) [Compound 8-B] | 10 to 100 nM | > 1000 nM |
| COCCN(C)c1cc2c(N)ncnc2c(-c2c(C)ccc(O)c2C)n1 (single isomer, unassigned) [Compound 9-B] | 10 to 100 nM | > 1000 nM |
| Cc1ccc(O)c(C)c1-c1nc(N(C)C)cc2c(N)ncnc12 (single isomer, unassigned) [Compound 10-B] | < 10 nM | > 1000 nM |
| Cc1ccc(O)c(C)c1-c1nc(N2CCC(O)CC2)cc2c(N)ncnc12 (single isomer, unassigned) [Compound 11-B] | < 10 nM | > 1000 nM |
| Cc1ccc(O)c(C)c1-c1nc(N(C)C(C)C)cc2c(N)ncnc12 (single isomer, unassigned) [Compound 12-B] | < 10 nM | > 1000 nM |
| Cc1ccc(O)c(C)c1-c1nc(N2CC[C@](C)(O)C2)cc2c(N)ncnc12 (single isomer, unassigned) [Compound 13-E] | 10 to 100 nM | > 1000 nM |
| Cc1ccc(O)c(C)c1-c1nc(N[C@H]2C[C@H](O)C2)cc2c(N)ncnc12 (single isomer, unassigned) [Compound 15-B] | 10 to 100 nM | > 1000 nM |
| Cc1ccc(O)c(C)c1-c1nc(NS(C)(=O)=O)cc2c(N)ncnc12 (single isomer, unassigned) [Compound 16-B] | 10 to 100 nM | > 1000 nM |
| Cc1ccc(O)c(C)c1-c1nc(C2CC2)cc2c(N)ncnc12 (single isomer, unassigned) [Compound 18-B] | < 10 nM | > 1000 nM |
| Cc1ccc(O)c(C)c1-c1nc(-c2cnn(C)c2)cc2c(N)ncnc12 (single isomer, unassigned) [Compound 19-B] | < 10 nM | 100 to 1000 nM |
| Cc1ccc(O)c(C)c1-c1nc(N2CCCC(F)(F)C2)cc2c(N)ncnc12 (single isomer, unassigned) [Compound 20-B] | < 10 nM | 100 to 1000 nM |
| Cc1ccc(O)c(C)c1-c1nc(N(C)C2CC2)cc2c(N)ncnc12 (single isomer, unassigned) [Compound 21-B] | < 10 nM | 100 to 1000 nM |

| Structure (SMILES) | IC50 (PKMYT1) | IC50 (WEE1) |
| --- | --- | --- |
| Cc1ccc(O)c(C)c1-c1nc(N2CC(C)(CO)C2)cc2c(N)ncnc12 (single isomer, unassigned) [Compound 22-B] | 10 to 100 nM | > 1000 nM |
| COC[C@H]1CCN(c2cc3c(N)ncnc3c(-c3c(C)ccc(O)c3C)n2)C1 (single isomer, unassigned) [Compound 23-B] | < 10 nM | > 1000 nM |
| COC[C@@H]1CCN1c1cc2c(N)ncnc2c(-c2c(C)ccc(O)c2C)n1 (single isomer, unassigned) [Compound 24-B] | 10 to 100 nM | > 1000 nM |
| COC[C@H]1CCN1c1cc2c(N)ncnc2c(-c2c(C)ccc(O)c2C)n1 (single isomer, unassigned) [Compound 25-B] | 10 to 100 nM | > 1000 nM |
| COC1CN(c2cc3c(N)ncnc3c(-c3c(C)ccc(O)c3C)n2)C1 (single isomer, unassigned) [Compound 26-B] | 10 to 100 nM | > 1000 nM |
| CCN(C)c1cc2c(N)ncnc2c(-c2c(C)ccc(O)c2C)n1 (single isomer, unassigned) [Compound 27-B] | < 10 nM | > 1000 nM |
| Cc1ccc(O)c(C)c1-c1nc(N(C)CC(F)F)cc2c(N)ncnc12 (single isomer, unassigned) [Compound 28-B] | < 10 nM | > 1000 nM |
| Cc1ccc(O)c(C)c1-c1nc(N(C)CC(F)(F)F)cc2c(N)ncnc12 (single isomer, unassigned) [Compound 29-B] | < 10 nM | > 1000 nM |
| Cc1ccc(O)c(C)c1-c1nc(N(C)CC2CC2)cc2c(N)ncnc12 (single isomer, unassigned) [Compound 30-B] | < 10 nM | > 1000 nM |
| Cc1ccc(O)c(C)c1-c1nc(-c2ccc(F)cc2F)cc2c(N)ncnc12 (single isomer, unassigned) [Compound 31-B] | < 10 nM | 100 to 1000 nM |
| C#Cc1cc2c(N)ncnc2c(-c2c(C)ccc(O)c2C)n1 (single isomer, unassigned) [Compound 33-B] | < 10 nM | > 1000 nM |
| Cc1ccc(O)c(C)c1-c1nc(C(=O)N2CCCC2)cc2c(N)ncnc12 (single isomer, unassigned) [Compound 34-B] | 100 to 1000 nM | > 1000 nM |
| Cc1ccc(O)c(C)c1-c1nc(CC(=O)N2CCOCC2)cc2c(N)ncnc12 (single isomer, unassigned) [Compound 35-B] | 100 to 1000 nM | > 1000 nM |
| CCN(c1cc2c(N)ncnc2c(-c2c(C)ccc(O)c2C)n1)C1CC1 (single isomer, unassigned) [Compound 36-B] | < 10 nM | 100 to 1000 nM |
| Cc1ccc(O)c(C)c1-c1nc(N(C)C2CCC2)cc2c(N)ncnc12 (single isomer, unassigned) [Compound 37-B] | < 10 nM | 100 to 1000 nM |
| Cc1ccc(O)c(C)c1-c1nc(N2CC[C@]3(CCO3)C2)cc2c(N)ncnc12 (single isomer, unassigned) [Compound 38-B] | < 10 nM | > 1000 nM |
| Cc1ccc(O)c(C)c1-c1nc(C(F)(F)F)cc2c(N)ncnc12 (single isomer, unassigned) [Compound 39-B] | 10 to 100 nM | – |
| Cc1ccc(O)c(C)c1-c1nc(C2CCC2)cc2c(N)ncnc12 (single isomer, unassigned) [Compound 40-B] | < 10 nM | > 1000 nM |
| Cc1ccc(O)c(C)c1-c1nc(N(C)CCC#N)cc2c(N)ncnc12 (single isomer, unassigned) [Compound 41-B] | < 10 nM | > 1000 nM |
| Cc1cc2c(C(N)=O)c(N)n(-c3c(C)ccc(O)c3C)c2nc1C [RP-6306, Lunresertib, reference compound] | – | 10 to 100 nM |

— patent US20260285859A1, “BI-CYCLIC PYRIMIDINE COMPOUNDS, METHODS AND USES THEREOF” (Zeno Management, Inc., priority 2023, published 2026)
